Measured values from patent publication US20130158098A1, “Alkenyl Substituted Cycloaliphatic Compounds as Chemical Inducers of Proximity” (priority 2010, published 2013).

Assays:
[1] = target: T1, GFP-PYLcs and ABIcs localization fusion proteins (Arabidopsis thaliana, UniProt Q8VZS8); experiment: ABA-induced subcellular relocalization of PYLcs fusion proteins; format: cell-based; conditions: NLS-ABIcs present; HEK 293T cells
T1 construct: A fragment of PYL1 (aa 33-209) is fused to full length GFP or SOS; HA (from the reverse primer); expressed in transfected cells; host or cells: HEK 293 / HEK 293T
T1 sequence (Q8VZS8 33-209): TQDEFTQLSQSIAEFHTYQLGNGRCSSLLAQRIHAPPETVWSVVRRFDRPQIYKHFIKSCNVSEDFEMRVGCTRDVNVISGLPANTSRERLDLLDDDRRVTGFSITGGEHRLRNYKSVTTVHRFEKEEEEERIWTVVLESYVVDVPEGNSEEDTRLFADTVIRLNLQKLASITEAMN
T1 sequence (P49597 126-434 partner): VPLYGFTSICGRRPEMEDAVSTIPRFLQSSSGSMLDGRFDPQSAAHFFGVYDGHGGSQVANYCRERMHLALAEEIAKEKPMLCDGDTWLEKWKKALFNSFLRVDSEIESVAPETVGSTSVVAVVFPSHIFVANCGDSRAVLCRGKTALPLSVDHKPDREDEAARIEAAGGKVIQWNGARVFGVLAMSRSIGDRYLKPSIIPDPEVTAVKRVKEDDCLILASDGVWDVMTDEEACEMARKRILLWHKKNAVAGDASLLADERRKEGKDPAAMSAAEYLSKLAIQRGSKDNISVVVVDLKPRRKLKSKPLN
Experimental: (§1) A fragment of ABI1 (aa 126-423) is either fused to full length mouse Brg, full length mouse Numb, full length human CD4 or myristoylation signal. A fragment of PYL1 (aa 33-209) is fused to full length GFP or SOS. Full length SOS is fused either to myristoylation signal or three copies of FKBP12.
(§2) Cells grown on glass coverslips were washed in phosphate-buffered saline (PBS) and fixed with 4% paraformaldehyde (PFA, prepared in PBS) at room temperature for 20 min. After three 5-min washes in PBS, the cells were permeabilized with 5% normal goat serum and 0.1% Triton X-100 in PBS at room temperature for 30 min and incubated with primary antibodies (FLAG antibody M2, Agilent, cat. #200472-21) at 4° C. overnight in the same buffer. The slides were subsequently washed three times with PBS (5 min each wash) and then incubated with Alexa fluorophore 594-conjugated secondary antibodies (Molecular Probes) for 1 hour at room temperature in the dark. Slides were washed three times in PBS for 5 min. Finally, the slides were mounted in Vectashield containing 4′,6-diamidino-2-phenylindole (DAPI; H-1500, Vector Laboratories) and imaged (63×) with a Leica DM5000B microscope.
(§3) The area and integrated fluorescence intensity of the whole cell and the nucleus were measured with Fiji (an open-source image processing package based on ImageJ) for images from the cytoplasmic or nuclear localization experiments. The area and the integrated fluorescence intensity of the cytoplasm were calculated by subtracting the value of the nucleus from the whole cell. The mean fluorescence intensity of nucleus or cytoplasm was calculated by dividing the integrated fluorescence intensity with the area of each subcellular compartment. The ratio between nuclear or cytoplasmic distribution was calculated by comparing the corresponding mean fluorescence intensity. Twenty cells were measured in each experiment.
(§4) The activities of proteins are often regulated by their subcellular localization. In another variation of domain reconstitution, the ability of ABA-induced proximity to control the localization of a chosen protein was tested. Fusions of ABIcs to specific subcellular localization domains were constructed and ABA was used to dimerize these ABIcs localization fusion proteins to green fluorescent protein (GFP)-fused PYLcs. The relocation of GFP-PYLcs to four subcellular locations was induced by fusing ABIcs to (i) Numb to serve as a cytoplasmic localization partner (Dho, S. E. et al. (1999) Characterization of four mammalian Numb protein isoforms: Identification of cytoplasmic and membrane-associated variants of the phosphotyrosine binding domain. J. Biol. Chem. 274, 33097-33104), (ii) to a nuclear localization sequence (NLS) or to Brg1 (Brm/SWI2-related gene 1) to serve as nuclear localization partners (Khavari, P. A. et al. (1993) BRG1 contains a conserved domain of the SWI2/SNF2 family necessary for normal mitotic growth and transcription. Nature 366, 170-174), (iii) to CD4 (cluster of differentiation 4) to serve as a plasma membrane localization partner (Sattentau, Q. J. et al. (1988) The CD4 antigen: Physiological ligand and HIV receptor. Cell 52, 631-633), or (iv) to a myristoylation (myr) sequence to serve as a plasma membrane and an intracellular membrane localization partner (Holsinger, L. J. et al. (1995) Signal transduction in T lymphocytes using a conditional allele of Sos. Proc. Natl. Acad. Sci. U.S.A. 92, 9810-9814)).

[2] = target: T2, GFP-PYLcs and ABIcs localization fusion proteins (Arabidopsis thaliana, UniProt Q8VZS8); experiment: as above; format: cell-based
T2 construct: A fragment of PYL1 (aa 33-209) is fused to full length GFP or SOS; HA (from the reverse primer); expressed in transfected cells; host or cells: HEK 293 / HEK 293T
T2 sequence (Q8VZS8 33-209): T1 sequence (Q8VZS8 33-209)
T2 sequence (P49597 126-423 partner): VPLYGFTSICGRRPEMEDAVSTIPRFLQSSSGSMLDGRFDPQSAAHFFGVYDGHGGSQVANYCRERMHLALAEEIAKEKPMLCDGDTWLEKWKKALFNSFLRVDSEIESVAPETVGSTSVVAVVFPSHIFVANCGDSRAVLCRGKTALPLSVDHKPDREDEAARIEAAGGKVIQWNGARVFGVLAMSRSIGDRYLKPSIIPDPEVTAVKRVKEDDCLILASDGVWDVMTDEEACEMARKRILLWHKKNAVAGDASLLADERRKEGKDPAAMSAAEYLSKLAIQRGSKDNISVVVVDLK
Experimental: as §1, §2, §3, §4

Which results are given for `CC1=CC(=O)CC(C)(C)C1(O)/C=C/C(C)=C/C(=O)O` (centres unmarked) [ABA, abscisic acid]?
redistribution of cytoplasmic Numb-GFP-PYLcs into the nucleus [1]: triggered the redistribution; time to relocalization of mCherry-PYLcs to Brg-ABIcs (nucleus) ([2]; 293T cells, ABA and Rap added together): ≤ 30 min; membrane localization of GFP-PYLcs to myr-ABIcs, specificity ([2]; 293T cells, ABA or Rap added): observed only when the matching small molecule was added; time to relocation of GFP-PYLcs to the nucleus or membrane ([2]; Brg1-ABIcs or CD4-ABIcs, HEK 293T cells): ≤ 30 min; time to cytoplasmic accumulation of GFP-PYLcs ([2]; Numb-ABIcs, HEK 293T cells): ≤ 30 min
